We go through 29 compounds from US8822449B2, “Substituted aminoindanes and analogs thereof, and the pharmaceutical use thereof” (Sanofi, priority 2008, dated 2014).

For one test, the target named is T1, sodium-proton exchanger of subtype 3 (NHE3) (Homo sapiens, UniProt P48764).
T1 construct: expressed in transfected cells
T1 sequence (P48764 26-834): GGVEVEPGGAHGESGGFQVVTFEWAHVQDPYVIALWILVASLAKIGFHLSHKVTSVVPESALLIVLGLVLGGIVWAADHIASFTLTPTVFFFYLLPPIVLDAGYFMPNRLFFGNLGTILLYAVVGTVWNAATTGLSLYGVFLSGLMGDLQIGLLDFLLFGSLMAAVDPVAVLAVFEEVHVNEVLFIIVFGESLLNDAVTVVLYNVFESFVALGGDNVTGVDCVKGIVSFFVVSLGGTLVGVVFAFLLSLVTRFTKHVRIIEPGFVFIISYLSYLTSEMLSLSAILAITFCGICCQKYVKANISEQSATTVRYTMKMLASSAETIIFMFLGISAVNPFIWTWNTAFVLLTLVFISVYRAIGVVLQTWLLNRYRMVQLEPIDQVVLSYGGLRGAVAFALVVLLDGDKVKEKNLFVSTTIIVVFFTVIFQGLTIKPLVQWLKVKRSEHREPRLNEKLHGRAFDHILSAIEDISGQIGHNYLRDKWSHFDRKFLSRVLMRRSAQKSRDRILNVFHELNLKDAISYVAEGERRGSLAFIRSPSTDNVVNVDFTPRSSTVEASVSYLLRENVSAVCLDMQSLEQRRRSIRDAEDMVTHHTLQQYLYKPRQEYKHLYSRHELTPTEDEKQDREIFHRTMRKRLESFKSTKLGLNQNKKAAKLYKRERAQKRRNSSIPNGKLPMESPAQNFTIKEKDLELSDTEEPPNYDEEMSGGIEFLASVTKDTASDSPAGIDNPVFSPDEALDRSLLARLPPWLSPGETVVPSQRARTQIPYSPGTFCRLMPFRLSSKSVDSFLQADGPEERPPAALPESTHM
The test can be described thus: Recovery of intracellular pH (pHi) after acidification in LAP1 cells stably expressing NHE3 (BCECF fluorescence, FLIPR). It counts as cell-based. The note with it: LAP1, read-out: Activity range (inhibitory effect on NHE3).
Take `CS(=O)(=O)c1ccc(O[C@H]2c3c(Cl)sc(Cl)c3CC[C@@H]2N2CCCC2)cc1` (racemic) [Example 253, 1-[1,3-dichloro-4-(4-methanesulfonylphenoxy)-4,5,6,7-tetrahydrobenzo[c]thiophen-5-yl]pyrrolidine]: the inhibition at 10 µM is 20 to 50%.

Staying with this test, now noted: LAP1 cells stably expressing NHE3; pH recovery after acidification; range 1 is % inhibition at 10 μM; read-out: Activity range (inhibitory effect on NHE3).
As to `CC(=O)Nc1cccc(O[C@H]2c3cc(Cl)cc(Cl)c3C[C@@H]2N2CC3CNCC3C2)c1` (mixture of isomers) [Example 689, N-{3-[rac-trans-(1,2)-4,6-dichloro-2-(hexahydropyrrolo[3,4-c]pyrrol-2-yl)indan-1-yloxy]phenyl}acetamide], the IC50 was less than 1 µM. For `Cc1nnc(C)n1-c1ccc(C(=O)O[C@H]2c3cc(Cl)cc(Cl)c3C[C@@H]2N2CC[C@@H](O)C2)c(Cl)c1` [Example 710, 2-Chloro-4-(3,5-dimethyl-[1,2,4]triazol-4-yl)-benzoic acid trans-(1S,2S)-4,6-dichloro-2-((R)-3-hydroxy-pyrrolidin-1-yl)-indan-1-yl ester], the IC50 lay within 1 to 10 µM.

With `COc1cccc(F)c1O[C@@H]1c2ccccc2C[C@H]1N1CCC(CN)CC1` (racemic) [Example 604, C-{1-[rac-trans-(1,2)-1-(2-fluoro-6-methoxyphenoxy)indan-2-yl]piperidin-4-yl}methylamine], the IC50 was less than 1 µM. For the compound `COc1cc(C#N)cc(Cl)c1O[C@H]1c2ccccc2CC[C@@H]1N1CCC[C@@H](N)C1` (racemic) [Example 512, 4-[rac-trans-(1,2)-2-((R)-3-aminopiperidin-1-yl)-1,2,3,4-tetrahydronaphthalen-1-yloxy]-3-chloro-5-methoxy-benzonitrile], the inhibition at 10 µM was in the range of 20 to 50%. As to `CN(C1CCCNC1)[C@@H]1Cc2ccccc2[C@H]1Oc1ccc(S(N)(=O)=O)c(Cl)c1Cl` (mixture of isomers) [Example 360, 2,3-dichloro-4-[rac-trans-(1,2)-2-(methylpiperidin-3-ylamino)indan-1-yloxy]benzenesulfonamide], the IC50 was 1 to 10 µM. As to `Cc1c(Cl)ccc(O[C@@H]2c3ccccc3C[C@H]2N2C[C@H]3CNC[C@H]3C2)c1Cl` (racemic) [Example 4, 2-[rac-trans-(1,2)-1-(2,4-dichloro-3-methylphenoxy)indan-2-yl]octahydropyrrolo[3,4-c]pyrrole], the IC50 was 1 to 10 µM. Turning to `N#CCc1cccc(O[C@H]2c3ccccc3CC[C@@H]2N2CCC[C@@H](N)C2)c1` (racemic) [Example 230, {3-[rac-trans-(1,2)-2-((R)-3-aminopiperidin-1-yl)-1,2,3,4-tetrahydronaphthalen-1-yloxy]phenyl}acetonitrile], the inhibition at 10 µM was in the range of 20 to 50%. For the compound `O=C1CCCN1c1ccc(O[C@H]2c3cc(Cl)cc(Cl)c3C[C@@H]2N2CCCC2)cc1` [Example 260, 1-[4-((1S,2S)-4,6-dichloro-2-pyrrolidin-1-ylindan-1-yloxy)phenyl]pyrrolidin-2-one], the IC50 was in the range of 1 to 10 µM. Same read-out and setting: with `CCn1cnn(-c2ccc(O[C@H]3c4cc(Cl)cc(Cl)c4C[C@@H]3N3CC[C@@H](O)C3)cc2)c1=O` [Example 736, 2-{4-[trans-(1S,2S)-4,6-Dichloro-2-((R)-3-hydroxy-pyrrolidin-1-yl)-indan-1-yloxy]-phenyl}-4-ethyl-2,4-dihydro-[1,2,4]triazol-3-one] the figure was 1 to 10 µM; with `CS(=O)(=O)c1ccc(O[C@H]2c3cc(Cl)cc(F)c3C[C@@H]2NC2CCCC2)cc1` [Example 751, [trans-(1S,2S)-6-Chloro-4-fluoro-1-(4-methanesulfonyl-phenoxy)-indan-2-yl]-cyclopentyl-amine], 1 to 10 µM; with `NCC1CCN([C@@H]2Cc3ccccc3[C@H]2Oc2ccc(N3CCNCC3)cc2)CC1` (racemic) [Example 619, C-{1-[rac-trans-(1,2)-1-(4-piperazin-1-ylphenoxy)indan-2-yl]piperidin-4-yl}methylamine], 1 to 10 µM. As to `c1ccc2c(c1)C[C@H](N1CCCC1)[C@H]2Oc1ccc(-c2nccs2)cc1` (racemic) [Example 364, 2-[4-(rac-trans-(1,2)-2-pyrrolidin-1-ylindan-1-yloxy)phenyl]thiazole], the IC50 fell in the range of 1 to 10 µM. The same measure, in the same setting: with `CN(C1CCCNC1)[C@@H]1Cc2ccccc2[C@H]1Oc1cccc2[nH]ccc12` (mixture of isomers) [Example 214, [rac-trans-(1,2)-1-(1H-indol-4-yloxy)indan-2-yl]methylpiperidin-3-ylamine] the figure was 1 to 10 µM. As to `Cc1nnc(C)n1-c1ccc(O[C@H]2c3cc(Cl)ccc3C[C@@H]2N2CCCC2)c(F)c1` [Example 501, 4-[4-(trans-(1S,2S)-6-chloro-2-pyrrolidin-1-ylindan-1-yloxy)-3-fluorophenyl]-3,5-dimethyl-4H-[1,2,4]triazole], the IC50 was less than 1 µM.

Turning to `CS(=O)(=O)c1ccccc1O[C@H]1c2ccccc2CC[C@@H]1N1CCC[C@@H](N)C1` (racemic) [Example 45, (R)-1-[rac-trans-(1,2)-1-(2-methanesulfonylphenoxy)-1,2,3,4-tetrahydronaphthalen-2-yl]piperidin-3-ylamine], the inhibition at 10 µM lay in the range of 20 to 50%. On to `CS(=O)(=O)c1ccc(O[C@@H]2c3ccccc3C[C@H]2NCC2CCC2)cc1` (racemic) [Example 717, Cyclobutylmethyl-[rac-trans-(1,2)-1-(4-methanesulfonyl-phenoxy)-indan-2-yl]-amine], for which the IC50 was 1 to 10 µM.

On to `Cc1ccc(O[C@H]2c3ccccc3CC[C@@H]2N2CCC[C@H](N)C2)c(Cl)c1` (racemic) [Example 152, (S)-1-[rac-trans-(1,2)-1-(2-chloro-4-methylphenoxy)-1,2,3,4-tetrahydronaphthalen-2-yl]piperidin-3-ylamine], for which the inhibition at 10 µM fell in the range of 20 to 50%. For the compound `CS(=O)(=O)c1ccc(O[C@H]2c3cc(Cl)cc(Cl)c3C[C@@H]2N2CCC[C@@H](NCC#N)C2)cc1` [Example 225, {(R)-1-[trans-(1S,2S)-4,6-dichloro-1-(4-methanesulfonylphenoxy)indan-2-yl]piperidin-3-ylamino}acetonitrile], the IC50 is less than 1 µM.

On to `NCC1CCN([C@@H]2Cc3ccccc3[C@H]2Oc2ccc(S(N)(=O)=O)c(Cl)c2Cl)C1` (mixture of isomers) [Example 538, 4-[rac-trans-(1,2)-2-(3-aminomethylpyrrolidin-1-yl)indan-1-yloxy]-2,3-dichlorobenzenesulfonamide], for which the IC50 lay within 1 to 10 µM.

Consider `NS(=O)(=O)c1ccc(O[C@H]2c3ccccc3C[C@@H]2N2CCCC2)c(Cl)c1` (racemic) [Example 444, 3-chloro-4-(rac-trans-(1,2)-2-pyrrolidin-1-ylindan-1-yloxy)benzenesulfonamide], for which the IC50 was less than 1 µM. `NS(=O)(=O)c1ccc(O[C@H]2c3cccc(Cl)c3C[C@@H]2N2CCCC2)cc1` (racemic) [Example 471, 4-(rac-trans-(1,2)-4-chloro-2-pyrrolidin-1-ylindan-1-yloxy)benzenesulfonamide]: the inhibition at 10 µM lay within 20 to 50%.

Take `CN(C)C[C@@H]1Cc2ccccc2[C@H]1Oc1ccc(S(C)(=O)=O)cc1` (racemic) [Example 244]: the inhibition at 10 µM was 20 to 50%. For the compound `N[C@@H]1CCCN([C@H]2CCc3ccccc3[C@@H]2Oc2ccc(F)cc2F)C1` (racemic) [Example 32, (R)-1-[rac-trans-(1,2)-1-(2,4-difluorophenoxy)-1,2,3,4-tetrahydronaphthalen-2-yl]piperidin-3-ylamine], the inhibition at 10 µM lay within 20 to 50%.

For the compound `CS(=O)(=O)c1ccc(O[C@H]2c3cc(Cl)cc(Cl)c3C[C@@H]2N2CCC[C@@H](NCCF)C2)cc1` [Example 222, {(R)-1-[trans-(1S,2S)-4,6-dichloro-1-(4-methanesulfonylphenoxy)indan-2-yl]piperidin-3-yl}-(2-fluoroethyl)amine], the IC50 is less than 1 µM. On to `CS(=O)(=O)c1ccc(O[C@H]2c3cc(Cl)cc(F)c3C[C@@H]2N2CC[C@@H](O)C2)cc1` [Example 108, (R)-1-[trans-(1S,2S)-6-chloro-4-fluoro-1-(4-methanesulfonylphenoxy)indan-2-yl]pyrrolidin-3-ol], for which the IC50 was 1 to 10 µM. In the case of `CCC(CC)N[C@@H]1Cc2ccccc2[C@H]1Oc1ccc(S(C)(=O)=O)cc1` (racemic) [Example 723, (1-Ethyl-propyl)-[rac-trans-(1,2)-1-(4-methanesulfonyl-phenoxy)-indan-2-yl]-amine], the inhibition at 10 µM is 20 to 50%.

On to `N[C@@H]1CCCN([C@@H]2Cc3ccccc3[C@H]2Oc2ccc(-n3ccnc3)cc2)C1` (racemic) [Example 72, (R)-1-[rac-trans-(1,2)-1-(4-imidazol-1-ylphenoxy)indan-2-yl]piperidin-3-ylamine], for which the IC50 was less than 1 µM. `N#Cc1ccc(O[C@H]2c3ccccc3CC[C@@H]2N2CCC[C@H](N)C2)cc1Cl` (racemic) [Example 529, 4-[rac-trans-(1,2)-2-((S)-3-aminopiperidin-1-yl)-1,2,3,4-tetrahydronaphthalen-1-yloxy]-2-chlorobenzonitrile]: the inhibition at 10 µM was 20 to 50%.
